Legend:
[1] = Liver microsomes metabolic stability assay, human; assay type: in vitro ADME; details: human liver microsomes 0.5 mg/mL, 37° C.; for half-life at 2 μM: read-out: t1/2 Human
Protocol: (§1) Example 203 Liver Microsomes Metabolic Stability Assay
(§2) Pooled human liver microsomes (Cat. 452117) were purchased from Corning. Pooled male rat liver microsomes (Cat. R1000) and pooled male mouse liver microsomes (Cat. M1000) were purchased from XENOTECH. Microsomes were stored at −80° C.
(§3) 1) Make a master solution containing phosphate buffer, ultra-pure H2O and MgCl2 solution according to Table 14.
(§4) 2) Two separated experiments were performed as follows.
(§5) a) With NADPH: 10 μL of 20 mg/mL liver microsomes and 40 μL of 10 mM NADPH were added to the incubations. The final concentrations of microsomes and NADPH were 0.5 mg/mL and 1 mM, respectively.
(§6) b) Without NADPH: 10 μL of 20 mg/mL liver microsomes and 40 μL of ultra-pure H2O were added to the incubations. The final concentration of microsomes was 0.5 mg/mL.
(§7) 3) The reaction was started with the addition of 4 μL test compounds solutions or control compound solution (verapamil) at the final concentration of 2 μM and carried out at 37° C.
(§8) 4) Aliquots of 50 μL were taken from the reaction solution at 0, 15, 30, 45 and 60 min. The reaction solutions were stopped by the addition of 4 volumes of cold acetonitrile with 1S (100 nM alprazolam, 200 nM caffeine, 200 nM labetalol and 2 μM ketoprofen). Samples were centrifuged at 3,220 g for 40 minutes. Aliquot of 100 μL of the supernatant was mixed with 100 μL of ultra-pure H2O and then used for LC-MS/MS analysis. All experiments were performed in duplicate.
(§9) The slope value, k, was determined by linear regression of the natural logarithm of the remaining percentage of the parent drug vs. incubation time curve.
(§10) The in vitro half-life (in vitro t1/2) was determined from the slope value:
(§11) Conversion of the in vitro t1/2 (in min) into the in vitro intrinsic clearance (in vitro CLint, in μL/min/mg proteins) was done using the following equation (mean of duplicate determinations): […]
(§12) The control compound (verapamil) was included in the assay. Any value of the compounds that was not within the specified limits will be rejected and the experiment will be repeated.

[2] = Liver microsomes metabolic stability assay, mouse; assay type: in vitro ADME; details: male, mouse liver microsomes 0.5 mg/mL, 37° C.; for half-life at 2 μM: read-out: t1/2 Mouse
Protocol: as §1, §2, §3, §4, §5, §6, §7, §8, §9, §10, §11, §12

TrkA kinase = TrkA kinase (Homo sapiens, UniProt P04629); experiment: TrkA kinase assay (mobility shift assay); assay type: biochemical; details: numeric values; read-out: Trk A Kinase IC50
How it was run: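 Ten-point compound series was preincubated 10 min at room temperature with TrkA, then FAM-peptide plus ATP added in HEPES pH 7.5/Brij-35 buffer and reacted at 28 °C before EDTA quench.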

[3] = Liver microsomes metabolic stability assay, rat; assay type: in vitro ADME; details: male, rat liver microsomes 0.5 mg/mL, 37° C.; for half-life at 2 μM: read-out: t1/2 Rat
Protocol: as §1, §2, §3, §4, §5, §6, §7, §8, §9, §10, §11, §12

TrkA kinase, sequence (P04629 33-796): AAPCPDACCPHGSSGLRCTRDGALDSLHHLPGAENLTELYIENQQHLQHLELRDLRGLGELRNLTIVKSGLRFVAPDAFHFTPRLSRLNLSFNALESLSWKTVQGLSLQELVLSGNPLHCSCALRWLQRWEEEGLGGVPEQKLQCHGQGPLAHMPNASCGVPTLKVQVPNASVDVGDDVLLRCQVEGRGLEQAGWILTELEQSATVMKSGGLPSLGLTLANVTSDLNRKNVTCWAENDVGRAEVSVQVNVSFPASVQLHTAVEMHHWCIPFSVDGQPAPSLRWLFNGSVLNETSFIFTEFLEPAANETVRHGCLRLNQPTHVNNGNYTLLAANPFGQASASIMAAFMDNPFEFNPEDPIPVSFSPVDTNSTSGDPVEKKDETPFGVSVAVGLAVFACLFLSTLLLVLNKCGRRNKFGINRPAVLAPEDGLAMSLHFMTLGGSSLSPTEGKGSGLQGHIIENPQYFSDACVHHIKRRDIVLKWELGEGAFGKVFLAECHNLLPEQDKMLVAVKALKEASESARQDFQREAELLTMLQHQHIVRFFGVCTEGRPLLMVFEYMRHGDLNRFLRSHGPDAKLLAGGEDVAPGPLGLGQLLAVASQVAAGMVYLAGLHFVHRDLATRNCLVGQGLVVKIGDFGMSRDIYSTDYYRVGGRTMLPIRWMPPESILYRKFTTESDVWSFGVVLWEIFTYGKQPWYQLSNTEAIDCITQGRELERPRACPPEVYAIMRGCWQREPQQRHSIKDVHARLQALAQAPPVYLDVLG

Row | SMILES | microsomal CLint at 2 μM [1] | half-life at 2 μM [1] | microsomal CLint at 2 μM [2] | half-life at 2 μM [2] | IC50 (TrkA kinase) | microsomal CLint at 2 μM [3] | half-life at 2 μM [3]
1 | C[C@@](O)(c1nnc(-c2cnn3ccc(N4CCC[C@@H]4c4cc(F)ccc4F)nc23)[nH]1)C(F)(F)F [Compound 26, (R)-2-(5-(5-((R)-2-(2,5-difluorophenyl)pyrrolidin-1-yl)pyrazolo[1,5-a]pyrimidin-3-yl)-4H-1,2,4-triazol-3-yl)-1,1,1-trifluoropropan-2-ol] | 23 µL/min/mg | 1 h | 25.9 µL/min/mg | 0.892 h | 2.6 nM | 40.5 µL/min/mg | 0.57 h
2 | Fc1ccc(F)c([C@H]2CCCN2c2ccn3ncc(-c4nnc(-c5ccc6c(c5)CCNC6)[nH]4)c3n2)c1 [Compound 36, (R)-6-(5-(5-(2-(2,5-difluorophenyl)pyrrolidin-1-yl)pyrazolo[1,5-a]pyrimidin-3-yl)-4H-1,2,4-triazol-3-yl)-1,2,3,4-tetrahydroisoquinoline] | 4.4 µL/min/mg | 5.25 h | 4.6 µL/min/mg | 5.02 h | 1.14 nM | 19.2 µL/min/mg | 1.2 h
3 | Fc1ccc(F)c([C@H]2CCCN2c2ccn3ncc(-c4nnc(-c5ccc(N6CCNCC6)cc5)[nH]4)c3n2)c1 [Compound 40, (R)-5-(2-(2,5-difluorophenyl)pyrrolidin-1-yl)-3-(5-(4-(piperazin-1-yl)phenyl)-4H-1,2,4-triazol-3-yl)pyrazolo[1,5-a]pyrimidine] | 3.2 µL/min/mg | 7.22 h | 12.4 µL/min/mg | 1.86 h | 1.56 nM | 4.6 µL/min/mg | 5.02 h
4 | Fc1ccc(F)c([C@H]2CCCN2c2ccn3ncc(-c4nc5cnccc5[nH]4)c3n2)c1 [Compound 65, (R)-2-(5-(2-(2,5-difluorophenyl)pyrrolidin-1-yl)pyrazolo[1,5-a]pyrimidin-3-yl)-1H-imidazo[4,5-c]pyridine] | 12.6 µL/min/mg | 1.83 h | 24 µL/min/mg | 0.963 h | 0.27 nM | 17.2 µL/min/mg | 1.34 h
5 | Fc1ccc(F)c([C@H]2CCCN2c2ccn3ncc(-c4nc5cc(OC(F)(F)F)ccc5[nH]4)c3n2)c1 [Compound 71, (R)-5-(2-(2,5-difluorophenyl)pyrrolidin-1-yl)-3-(5-(trifluoromethoxy)-1H-benzo[d]imidazol-2-yl)pyrazolo[1,5-a]pyrimidine] | 17 µL/min/mg | 1.36 h | 10.8 µL/min/mg | 2.14 h | 27.1 nM | 12.2 µL/min/mg | 1.89 h
6 | Fc1ccc(F)c([C@H]2CCCN2c2ccn3ncc(-c4nc5cnncc5[nH]4)c3n2)c1 [Compound 76, (R)-2-(5-(2-(2,5-difluorophenyl)pyrrolidin-1-yl)pyrazolo[1,5-a]pyrimidin-3-yl)-1H-imidazo[4,5-d]pyridazine] | 21.2 µL/min/mg | 1.09 h | 15.6 µL/min/mg | 1.48 h | 0.66 nM | 22.2 µL/min/mg | 1.04 h
7 | Fc1ccc(F)c([C@H]2CCCN2c2ccn3ncc(-c4nc5cc6c(cc5[nH]4)OC(F)(F)O6)c3n2)c1 [Compound 79, (R)-6-(5-(2-(2,5-difluorophenyl)pyrrolidin-1-yl)pyrazolo[1,5-a]pyrimidin-3-yl)-2,2-difluoro-5H-[1,3]dioxolo[4′,5′:4,5]benzo[1,2-d]imidazole] | 10.2 µL/min/mg | 2.26 h | 10 µL/min/mg | 2.31 h | 11.9 nM | 10.8 µL/min/mg | 2.14 h
8 | Fc1ccc(F)c([C@H]2CCCN2c2ccn3ncc(-c4nc5ccc(OC(F)(F)F)cc5o4)c3n2)c1 [Compound 80, (R)-2-(5-(2-(2,5-difluorophenyl)pyrrolidin-1-yl)pyrazolo[1,5-a]pyrimidin-3-yl)-6-(trifluoromethoxy)benzo[d]oxazole] | 2.4 µL/min/mg | 9.62 h | 8.4 µL/min/mg | 2.75 h | 23.6 nM | 7 µL/min/mg | 3.3 h
9 | COc1cc2nc(-c3cnn4ccc(N5CCC[C@@H]5c5cc(F)ccc5F)nc34)[nH]c2cc1C(=O)O [Compound 90, (R)-2-(5-(2-(2,5-difluorophenyl)pyrrolidin-1-yl)pyrazolo[1,5-a]pyrimidin-3-yl)-5-methoxy-1H-benzo[d]imidazole-6-carboxylic acid] | 5.6 µL/min/mg | 4.12 h | 0.8 µL/min/mg | 28.9 h | 0.44 nM | 1.4 µL/min/mg | 16.5 h
10 | Fc1ccc(F)c([C@H]2CCCN2c2ccn3ncc(-c4nc5cc(Cl)c(OC(F)(F)F)cc5[nH]4)c3n2)c1 [Compound 92, (R)-3-(5-chloro-6-(trifluoromethoxy)-1H-benzo[d]imidazol-2-yl)-5-(2-(2,5-difluorophenyl)pyrrolidin-1-yl)pyrazolo[1,5-a]pyrimidine] | 20.4 µL/min/mg | 1.13 h | 5.6 µL/min/mg | 4.12 h | 20.7 nM | 10.2 µL/min/mg | 2.26 h
11 | Fc1ccc(F)c([C@H]2CCCN2c2ccn3ncc(-c4nc5cc6c(cc5[nH]4)OCCO6)c3n2)c1 [Compound 96, (R)-2-(5-(2-(2,5-difluorophenyl)pyrrolidin-1-yl)pyrazolo[1,5-a]pyrimidin-3-yl)-6,7-dihydro-1H-[1,4]dioxino[2′,3′:4,5]benzo[1,2-d]imidazole] | 37 µL/min/mg | 0.624 h | 32 µL/min/mg | 0.722 h | 0.7 nM | 29.4 µL/min/mg | 0.786 h
12 | COc1cc2[nH]c(-c3cnn4ccc(N5CCC[C@@H]5c5cc(F)ccc5F)nc34)nc2cc1Cl [Compound 112, (R)-3-(5-chloro-6-methoxy-1H-benzo[d]imidazol-2-yl)-5-(2-(2,5-difluorophenyl)pyrrolidin-1-yl)pyrazolo[1,5-a]pyrimidine] | 16.8 µL/min/mg | 1.38 h | 27.4 µL/min/mg | 0.843 h | 3.2 nM | 34 µL/min/mg | 0.679 h
